# Reference: patent US20230099344A1, “COMPOUNDS AND METHODS FOR THE TARGETED DEGRADATION OF IRAK-4” (Arvinas Operations, Inc., priority 2021, published 2023)
# Columns and labels:
# Type in all cases: cell-based
# IL6 [1] = experiment: LPS stimulated IL6 inhibition assay in PBMC; conditions: Homo sapiens, PBMC, 24 h, human PBMCs, LPS stimulation, compound overnight, IL6 by MSD after 24 hrs; for Dmax: read-out: LPS Stim IL6 inhibition Dmax; for IC50: read-out: LPS stim IL6 inhibition IC50
# Method: (§1) IL-1β, LPS, or R848 Stimulated IL6 Inhibition and IL-1β Stimulated IL8 Inhibition Assay
# (§2) Human PBMC cells were seeded at 2.0×10^6 cells/mL, treated with compound overnight, and dosed with the EC50 concentration of each stimulant (either IL-1B. LPS, or R848) was determined for each donor. After 24 hrs, media was collected and analyzed by MSD for IL6 and/or IL8 levels.
# IL6 [2] = experiment: R848 stimulated IL6 inhibition assay in PBMC; conditions: PBMC, human PBMCs, R848 stimulation, compound overnight, IL6 by MSD after 24 hrs; for Dmax: Homo sapiens, 24 h, read-out: R848 stim IL6 inhibition Dmax; for IC50: read-out: R848 stim IL6 inhibition IC50
# Method: as §1, §2
# IRAK-4 = target: T1, IRAK-4 (Homo sapiens, UniProt Q9NWZ3); experiment: IRAK-4 ELISA, PBMC degradation; set-up: endogenous in cells; host or cells: PBMC; conditions: treated overnight
# T1 sequence (Q9NWZ3 1-460): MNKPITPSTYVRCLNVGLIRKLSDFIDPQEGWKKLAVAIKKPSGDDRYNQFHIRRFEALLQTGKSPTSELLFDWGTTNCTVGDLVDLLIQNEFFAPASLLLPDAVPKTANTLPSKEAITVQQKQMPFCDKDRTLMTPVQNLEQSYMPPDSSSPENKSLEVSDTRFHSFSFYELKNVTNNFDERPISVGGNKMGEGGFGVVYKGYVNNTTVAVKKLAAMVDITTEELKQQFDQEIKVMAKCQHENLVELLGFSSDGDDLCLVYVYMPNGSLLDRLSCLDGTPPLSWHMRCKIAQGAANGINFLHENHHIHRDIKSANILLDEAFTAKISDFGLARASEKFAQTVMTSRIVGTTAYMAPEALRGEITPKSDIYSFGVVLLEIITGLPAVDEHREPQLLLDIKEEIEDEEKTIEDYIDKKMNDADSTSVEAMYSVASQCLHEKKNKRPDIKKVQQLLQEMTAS
# Outline: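 OCI-Ly10 cells (seeded at 1×10^6/ml) or human PBMC (seeded at 2×10^6/ml) were treated with compound on the day of seeding and incubated overnight. Lysates were then assayed for remaining IRAK-4 protein by sandwich ELISA with a matched antibody pair.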
IC50 (IL6 [1]) [nM],IC50 (IL6 [2]) [nM],DC50 (IRAK-4) [nM],Dmax (IRAK-4) [%],PBMC DC90 (IRAK-4),Structure (SMILES),Dmax (IL6 [1]) [%],Dmax (IL6 [2]) [%]
10 to 50,10 to 50,1 to 5,≥ 90,A (A represents a DC90 value <10.0 nM),CC(C)Oc1cc2c(cc1NC(=O)c1cnn3cccnc13)CN(C1CCN(CC3CCN(c4ccc5c(c4)C(=O)N([C@@H]4CCC(=O)NC4=O)C5=O)CC3)CC1)C2=O [Example 47],80 to 90,80 to 90
< 10,10 to 50,1 to 5,≥ 90,A (A represents a DC90 value <10.0 nM),Cc1cnc2c(C(=O)Nc3cc4c(cc3OC(C)C)C(=O)N(C3CCN(CC5CCN(c6ccc7c(c6)C(=O)N(C6CCC(=O)NC6=O)C7=O)CC5)CC3)C4)cnn2c1 (centres unmarked) [Example 56],70 to 80,≥ 90
10 to 50,10 to 50,< 1,80 to 90,A (A represents a DC90 value <10.0 nM),CC(C)Oc1cc2c(cc1NC(=O)c1cnn3cccnc13)CN(C1CCN(C(C)(C)C3CCN(c4ccc5c(c4)CN(C4CCC(=O)NC4=O)C5=O)CC3)CC1)C2=O (centres unmarked) [Example 111],≥ 90,≥ 90
10 to 50,10 to 50,1 to 5,≥ 90,A (A represents a DC90 value <10.0 nM),CC(C)Oc1nc2c(cc1NC(=O)c1cnn3cccnc13)CN(C1CCN(CC3CCN(c4ccc5c(c4)C(=O)N(C4CCC(=O)NC4=O)C5=O)CC3)CC1)C2=O (centres unmarked) [Example 46],70 to 80,≥ 90
10 to 50,10 to 50,1 to 5,≥ 90,A (A represents a DC90 value <10.0 nM),CC(C)Oc1cc2c(cc1NC(=O)c1cnn3cccnc13)CN([C@H]1CC[C@H](CN3CCC(c4ccc5c(c4)C(=O)N(C4CCC(=O)NC4=O)C5=O)CC3)CC1)C2=O (some centres unmarked) [Example 432],70 to 80,≥ 90

# Continued, molecule first:
Structure (SMILES),IC50 (IL6 [1]) [nM],IC50 (IL6 [2]) [nM],DC50 (IRAK-4) [nM],Dmax (IRAK-4) [%],PBMC DC90 (IRAK-4),Dmax (IL6 [1]) [%],Dmax (IL6 [2]) [%]
O=C1CCC(N2C(=O)c3ccc(N4CCN(C[C@H]5CC[C@H](n6cc7cc(NC(=O)c8cnn9cccnc89)c(OCC8CC8)cc7n6)CC5)CC4)cc3C2=O)C(=O)N1 (some centres unmarked) [Example 375],< 10,10 to 50,1 to 5,≥ 90,A (A represents a DC90 value <10.0 nM),70 to 80,≥ 90
CN(C1CCN(c2ccc3c(c2)C(=O)N(C2CCC(=O)NC2=O)C3=O)CC1)[C@H]1CC[C@H](N2Cc3cc(NC(=O)c4cnn5cccnc45)c(N4CCN(CC(F)F)CC4)cc3C2=O)CC1 (some centres unmarked) [Example 371],10 to 50,10 to 50,< 1,≥ 90,B (B represents a DC90 value ≥10.0 nM and <25.0 nM),70 to 80,≥ 90
O=C1CCC(N2Cc3ccc(N4CCC(CN5CCC(n6cc7cc(NC(=O)c8cnn9cccnc89)c(OCC8CC8)cc7n6)CC5)CC4)cc3C2=O)C(=O)N1 (centres unmarked) [Example 155],< 10,< 10,< 1,≥ 90,A (A represents a DC90 value <10.0 nM),80 to 90,≥ 90
CC(C)Oc1cc2c(cc1NC(=O)c1cnn3cc(Cl)cnc13)CN(C1CCN(CC3CCN(c4ccc5c(c4)C(=O)N(C4CCC(=O)NC4=O)C5=O)CC3)CC1)C2=O (centres unmarked) [Example 43],< 10,10 to 50,1 to 5,≥ 90,B (B represents a DC90 value ≥10.0 nM and <25.0 nM),< 70,80 to 90
"O=C1CCC(N2Cc3c(F)cc(N4CC(F)(CN5CCC(n6cc7cc(NC(=O)c8cnn9cccnc89)c(OCC8CC8)cc7n6)CC5)C4)cc3C2=O)C(=O)N1 (centres unmarked) [Example 268, N-[6-(cyclopropylmethoxy)-2-[1-({1-[2-(2,6-dioxopiperidin-3-yl)-7-fluoro-3-oxo-2,3-dihydro-1H-isoindol-5-yl]-3-fluoroazetidin-3-yl}methyl)piperidin-4-yl]-2H-indazol-5-yl]pyrazolo[1,5-a]pyrimidine-3-carboxamide]",10 to 50,10 to 50,< 1,≥ 90,A (A represents a DC90 value <10.0 nM),70 to 80,≥ 90
"O=C1CCC(N2C(=O)c3ccc(C4CCN(C[C@H]5CC[C@H](n6cc7cc(NC(=O)c8cnn9cccnc89)c(OCC8CC8)cc7n6)CC5)CC4)cc3C2=O)C(=O)N1 (some centres unmarked) [Example 429, N-[6-(cyclopropylmethoxy)-2-[(1r,4r)-4-({4-[2-(2,6-dioxopiperidin-3-yl)-1,3-dioxo-2,3-dihydro-1H-isoindol-5-yl]piperidin-1-yl}methyl)cyclohexyl]-2H-indazol-5-yl]pyrazolo[1,5-a]pyrimidine-3-carboxamide]",< 10,10 to 50,< 1,≥ 90,A (A represents a DC90 value <10.0 nM),70 to 80,≥ 90
"Cn1c(=O)n(C2CCC(=O)NC2=O)c2cccc(N3CC(CN4CCC(n5cc6cc(NC(=O)c7cnn8cccnc78)c(OCC7CC7)cc6n5)CC4)C3)c21 (centres unmarked) [Example 378, N-(6-(cyclopropylmethoxy)-2-(1-((1-(1-(2,6-dioxopiperidin-3-yl)-3-methyl-2-oxo-2,3-dihydro-1H-benzo[d]imidazol-4-yl)azetidin-3-yl)methyl)piperidin-4-yl)-2H-indazol-5-yl)pyrazolo[1,5-a]pyrimidine-3-carboxamide]",< 10,< 10,< 1,≥ 90,A (A represents a DC90 value <10.0 nM),80 to 90,≥ 90
O=C1CCC(N2C(=O)c3ccc(N4CCN(C[C@H]5CC[C@H](n6cc7cc(NC(=O)c8cnn9cccnc89)c(OCC(F)F)cc7n6)CC5)CC4)cc3C2=O)C(=O)N1 (some centres unmarked) [Example 430],10 to 50,10 to 50,1 to 5,≥ 90,A (A represents a DC90 value <10.0 nM),70 to 80,≥ 90
CN(C1CN(c2ccc3c(c2)CN(C2CCC(=O)NC2=O)C3=O)C1)[C@H]1CC[C@H](n2cc3cc(NC(=O)c4cnn5cccnc45)c(OCC(F)F)cc3n2)CC1 (some centres unmarked) [Example 363],10 to 50,10 to 50,< 1,≥ 90,A (A represents a DC90 value <10.0 nM),70 to 80,≥ 90
O=C1CCC(N2C(=O)c3ccc(N4CCCC5(C4)CN([C@H]4CC[C@H](n6cc7cc(NC(=O)c8cnn9cccnc89)c(OCC8CC8)cc7n6)CC4)C5)cc3C2=O)C(=O)N1 (some centres unmarked) [Example 418],10 to 50,< 10,< 1,80 to 90,A (A represents a DC90 value <10.0 nM),80 to 90,≥ 90
O=C1CCC(N2Cc3c(ccc(N4CC(F)(CN5CCC(n6cc7cc(NC(=O)c8cnn9cccnc89)c(OCC8CC8)cc7n6)CC5)C4)c3F)C2=O)C(=O)N1 (centres unmarked) [Example 250],≥ 100,10 to 50,1 to 5,80 to 90,B (B represents a DC90 value ≥10.0 nM and <25.0 nM),< 70,80 to 90
CC(C)Oc1cc2c(cc1NC(=O)c1cnn3cccnc13)CN(C[C@@H](F)C1CCN(CC3CN(c4cccc5c4n(C)c(=O)n5C4CCC(=O)NC4=O)C3)CC1)C2=O (some centres unmarked) [Example 382],10 to 50,10 to 50,< 1,≥ 90,A (A represents a DC90 value <10.0 nM),70 to 80,≥ 90
CC(C)Oc1cc2nn(C3CCN(CC4CN(c5ccc(F)c(C(=O)NC6CCC(=O)NC6=O)c5)C4)CC3)cc2cc1NC(=O)c1cnn2cccnc12 (centres unmarked) [Example 307],≥ 100,≥ 100,≥ 10,,D (D represents a DC90 value ≥50 nM),,80 to 90
O=C1CCC(N2C(=O)c3ccc(N4CCC(CN5CCC(N6Cc7cc(NC(=O)c8cnn9cccnc89)c(OCC(F)F)cc7C6=O)CC5)CC4)cc3C2=O)C(=O)N1 (centres unmarked) [Example 42],50 to 100,< 10,1 to 5,≥ 90,B (B represents a DC90 value ≥10.0 nM and <25.0 nM),< 70,< 70
